Assay [1] has as its target Bruton's tyrosine kinase (BTK) (Homo sapiens (Human), UniProt Q06187). As to the kind of experiment: BTK enzyme inhibition assay (Cisbio HTRF kit). It is filed as biochemical. The following applies: 30 minutes reaction, fluorescence 665 nm/620 nm. The method, then: BTK enzyme evaluation with each compound of examples of the invention was performed by using BTK enzyme inhibition diagnosis kit (Cisbio, Codolet, France). […] Then, EDTA (ethylenediaminetetraacetic acid) was added thereto in order to terminate the reaction. At this time, the EDTA solution contained curopium-containing antibody (antiphosphoresidue antibody) and straptavidin-XL665 (SA-XL665, Cisbio). After incubation for 1 hour, fluorescence was measured. The emission values of 665 nm and 620 nm excited at 337 nm were measured with Envision reader. IC50 values were determined using GraphPad prism (version 5). Herein, the curve indicates a nonlinear regression model, which was determined by logarithmic functions and reaction values.

For assay [2], the system named is TMD8 cells. As to the kind of experiment: TMD8 cell growth inhibition (WST-1, 72 hours). It is filed as cell-based. To be noted: Homo sapiens, TMD8 ABC type DLBCL cell line, WST-1, absorbance 450 nm. The protocol:
TDM-8 cells, the ABC (activated B-cell) type DLBCL (diffuse large B cell lymphoma) cell line sensitive to BTK signaling, were seeded in a 96-well plate at 30% confluency. Then, the compounds of the invention were treated thereto at different concentrations. 72 hours later, WST-1 reagent was added thereto. One hour later, absorbance was measured at 450 nm by using a spectramax spectrophotometer.
Background: Tetrazolium assays rely on reduction of a dye to a coloured formazan, in cell work by metabolically active cells.

Assay [3] has as its system human peripheral blood mononuclear cells (human PBMC). As to the kind of experiment: TNFa inhibition in human PBMC monocytes (ELISA). It is filed as cell-based. The following applies: TNFa concentration in culture medium by ELISA, HSA/anti-HSA antibody coated plate, overnight culture, read-out: hPBMC IC50. The protocol: 20 ug/ml of human serum albumin (HAS) solution was prepared and distributed in a 96-well plate (200 μl/well). Reaction was induced at 4° C. for overnight and then 10% FBS solution was treated thereto (200 μl/well), followed by elimination. Lastly, 10 ug/ml of anti-HSA antibody was treated thereto (200 μl/well) for 1 hour, followed by elimination. An appropriate number of monocytes of human peripheral blood mononuclear cells (human PBMC) were distributed in the prepared 96-well plate. The target compounds were treated thereto at different concentration via serial dilution method, followed by culture for overnight. IC50 values of the compounds were determined by confirming the TNFa inhibition activity of the compounds between the maximum concentration (positive control) and the minimum concentration (negative control) of TNFa, and the results are shown in Table 8.

Molecules are shown by their SMILES. pIC50: −log10 of the molar value. Counter-ions that a name gives are not always drawn.

The source of these data is US11084824B2, “Pyrazolopyrimidine derivatives, preparation method thereof, and pharmaceutical composition for use in preventing or treating cancer, autoimmune disease and brain disease containing the same as an active ingredient” (Korea Research Institute of Chemical Technology, priority 2017, dated 2021).

Sequence of Bruton's tyrosine kinase (BTK) (Q06187 whole entry): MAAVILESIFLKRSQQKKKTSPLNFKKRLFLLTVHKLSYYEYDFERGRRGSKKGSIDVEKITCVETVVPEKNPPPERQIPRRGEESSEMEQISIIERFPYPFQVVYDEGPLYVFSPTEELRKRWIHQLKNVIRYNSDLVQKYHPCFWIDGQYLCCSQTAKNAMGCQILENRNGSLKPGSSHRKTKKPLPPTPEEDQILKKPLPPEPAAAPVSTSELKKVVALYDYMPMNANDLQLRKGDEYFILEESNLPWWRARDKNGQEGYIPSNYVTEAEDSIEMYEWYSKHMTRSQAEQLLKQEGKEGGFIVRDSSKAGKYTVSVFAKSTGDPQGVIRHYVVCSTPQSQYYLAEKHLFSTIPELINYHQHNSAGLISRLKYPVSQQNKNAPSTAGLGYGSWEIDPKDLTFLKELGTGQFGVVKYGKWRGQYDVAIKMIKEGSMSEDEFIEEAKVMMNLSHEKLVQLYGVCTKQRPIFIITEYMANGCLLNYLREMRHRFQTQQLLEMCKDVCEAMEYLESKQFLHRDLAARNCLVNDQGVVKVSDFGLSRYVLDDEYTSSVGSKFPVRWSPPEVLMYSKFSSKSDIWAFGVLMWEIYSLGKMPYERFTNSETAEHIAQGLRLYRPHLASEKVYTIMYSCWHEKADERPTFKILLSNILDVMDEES

The pIC50 is −log10 of the IC50, conventionally taken in molar units. On to `CC(=O)N1CCc2cc(Nc3ncc4c(Nc5c(Cl)cccc5Cl)nn(C)c4n3)ccc2C1` [Example 16, 1-(6-(3-(2,6-dichlorophenylamino)-1-methyl-1H-pyrazolo[3,4-d]pyrimidine-6-ylamino)-3,4-dihydroisoquinoline-2(1H)-yl)ethaneone], for which the pIC50 in assay [1] is 8.52; in assay [2], 7.21; in assay [3], 8.49.
`Cc1cccc(C)c1Nc1nn(C)c2nc(Nc3ccc4c(c3)CNCC4)ncc12` [Example 2, N^3-(2,6-dimethylphenyl)-1-methyl-N^6-(1,2,3,4-tetrahydroisoquinoline-7-yl)-1H-pyrazolo[3,4-d]pyrimidine-3,6-diamine]: the results for the pIC50 in assay [2] and in assay [3] were 7.52 and 8.11, respectively.
On to `Cn1nc(Nc2c(Cl)cccc2Cl)c2cnc(Nc3ccc4c(c3)CNCC4)nc21` [Example 12, N^3-(2,6-dichlorophenyl)-1-methyl-N^6 (1,2,3,4-tetrahydroisoquinoline-7-yl)-1H-pyrazolo[3,4-d]pyrimidine-3,6-diamine], for which the figures for the negative logarithm of the IC50 (pIC50) in assay [1], in assay [2] and in assay [3] were 8.43, 7.05 and 8.59, respectively.
With `Cc1cccc(C)c1Nc1nn(C)c2nc(Nc3ccc4c(c3)CCNC4)ncc12` [Example 7, N^3-(2,6-dimethylphenyl)-1-methyl-N^6-(1,2,3,4-tetrahydroisoquinoline-6-yl)-1H-pyrazolo[3,4-d]pyrimidine-3,6-diamine], the pIC50 in assay [1] is 9.10; in assay [2] it was 7.34; in assay [3], 7.70.
On the same counts, the results for `CC(=O)N1CCc2cc(Nc3ncc4c(Nc5c(C)cccc5C)nn(C)c4n3)ccc2C1` [Example 8, 1-(6-(3-(2,6-dimethylphenylamino)-1-methyl-1H-pyrazolo[3,4-d]pyrimidine-6-ylamino)-3,4-dihydroisoquinoline-2(1H)-yl)ethaneone] are 9.00, 7.03 and 8.32.
For the molecule `Cn1nc(Nc2ccccc2)c2cnc(Nc3ccc4c(c3)CNCC4)nc21` [Example 10, 1-methyl-N^3-phenyl-N^6-(1,2,3,4-tetrahydroisoquinoline-7-yl)-1H-pyrazolo[3,4-d]pyrimidine-3,6-diamine], the negative logarithm of the IC50 (pIC50) in assay [3] is 6.69.
For the molecule `Cn1nc(Nc2c(Cl)cccc2Cl)c2cnc(Nc3ccc4c(c3)CCNC4)nc21` [Example 15, N^3-(2,6-dichlorophenyl)-1-methyl-N^6-(1,2,3,4-tetrahydroisoquinoline-6-yl)-1H-pyrazolo[3,4-d]pyrimidine-3,6-diamine], the pIC50 in assay [2] is 7.39; in assay [3], 8.89.
On to `CC(=O)N1CCc2ccc(Nc3ncc4c(Nc5c(C)cccc5C)nn(C)c4n3)cc2C1` [Example 1, 1-(7-(3-(2,6-dimethylphenylamino)-1-methyl-1H-pyrazolo[3,4-d]pyrimidine-6-ylamino)-3,4-dihydroisoquinoline-2(1H)-yl)ethaneone], for which the pIC50 in assay [1] is 9.22; in assay [2] it was 7.39; in assay [3], 7.46.
As for `Cc1cccc(C)c1Nc1nn(C)c2nc(Nc3ccc4c(c3)CCN(C(=O)C(F)(F)F)C4)ncc12` [Example 6, 1-(6-(3-(2,6-dimethylphenylamino)-1-methyl-1H-pyrazolo[3,4-d]pyrimidine-6-ylamino)-3,4-dihydroisoquinoline-2(1H)-yl)-2,2,2-trifluoroethaneone], the pIC50 in assay [1] was 8.00; in assay [2], 6.80; in assay [3] it was 6.95.
Taken in the same sequence, the figures for `CC(=O)N1CCc2ccc(Nc3ncc4c(Nc5c(Cl)cccc5Cl)nn(C)c4n3)cc2C1` [Example 13, 1-(7-(3-(2,6-dichlorophenylamino)-1-methyl-1H-pyrazolo[3,4-d]pyrimidine-6-ylamino)-3,4-dihydroisoquinoline-2(1H)-yl)ethaneone] were 8.52, 6.93 and 8.26.
On the same counts, the results for `C=CC(=O)N1CCc2ccc(Nc3ncc4c(Nc5c(C)cccc5C)nn(C)c4n3)cc2C1` [Example 14, 1-(7-(3-(2,6-dimethylphenylamino)-1-methyl-1H-pyrazolo[3,4-d]pyrimidine-6-ylamino)-3,4-dihydroisoquinoline-2(1H)-yl)prop-2-en-1-one] are 8.70, 7.49 and 7.51.
Regarding `CC(=O)N1CCc2ccc(Nc3ncc4c(Nc5c(C)cccc5C)nn(C)c4n3)cc2C1C` (stereo not drawn) [Example 61, 1-(7-((3-((2,6-dimethylphenyl)amino)-1-methyl-1H-pyrazolo[3,4-d]pyrimidine-6-yl)amino)-1-methyl-3,4-dihydroisoquinoline-2(1H)-yl)ethane-1-one], the pIC50 is 8.99 in assay [1] and 7.02 in assay [2].
Taken in the same sequence, the figures for `Cc1cccc(C)c1Nc1nn(C)c2nc(Nc3ccc4c(c3)CNC4)ncc12` [Example 56, N^3-(2,6-dimethylphenyl)-N^6-(isoindolin-5-yl)-1-methyl-1H-pyrazolo[3,4-d]pyrimidine-3,6-diamine hydrochloride] were 9.13 and 7.23.
Consider `COc1cc2c(cc1Nc1ncc3c(Nc4c(C)cccc4C)nn(C)c3n1)CCNC2` [Example 4, N^1-(2,6-dimethylphenyl)-N^6-(7-methoxy-1,2,3,4-tetrahydroisoquinoline-6-yl)-1-methyl-1H-pyrazolo[3,4-d]pyrimidine-3,6-diamine], for which the negative logarithm of the IC50 (pIC50) in assay [1] is 7.00; in assay [2], 6.24; in assay [3], 6.68.
For the molecule `Cc1cccc(C)c1Nc1nn(C)c2nc(Nc3ccc4c(c3)C(C)N(C)CC4)ncc12` (stereo not drawn) [Example 62, N6-(1,2-dimethyl-1,2,3,4-tetrahydroisoquinoline-7-yl)-N 3-(2,6-dimethylphenyl)-1-methyl-1H-pyrazolo[3,4-d]pyrimidine-3,6-diamine], the negative-log IC50 (pIC50) in assay [1] was 8.92; in assay [2], 7.55.
Take `Cc1cccc(C)c1Nc1nn(C)c2nc(Nc3ccc4c(c3)CNC(C)(C)C4)ncc12` [Example 53, N^6-(3,3-dimethyl-1,2,3,4-tetrahydroisoquinoline-7-yl)-N^3-(2,6-dimethylphenyl)-1-methyl-1H-pyrazolo[3,4-d]pyrimidine-3,6-diamine]: the pIC50 in assay [1] is 9.28; in assay [2], 7.50.
Taken in the same sequence, the figures for `Cc1cccc(C)c1Nc1nn(C)c2nc(Nc3ccc4c(c3)C(C)(C)N(C)CC4)ncc12` [Example 59, N3-(2,6-dimethylphenyl)-1-methyl-N 6-(1,1,2-trimethyl-1,2,3,4-tetrahydroisoquinoline-7-yl)-1H-pyrazolo[3,4-d]pyrimidine-3,6-diamine] were 8.74 and 8.03.
